Measurements taken from the supplement of paper PMC10307832.

How the values were obtained:
Assay in all cases: relative viability (nuclei count vs DMSO), 5 days (fraction); higher = more cells survive
AZ628 + Olaparib = compound: CC1=C(C=C(C=C1)NC(=O)C2=CC(=CC=C2)C(C)(C)C#N)NC3=CC4=C(C=C3)N=CN(C4=O)C [AZ628] + O=C(c1cc(Cc2n[nH]c(=O)c3ccccc23)ccc1F)N1CCN(C(=O)C2CC2)CC1 [Olaparib] (partner 8 µM)
How it was run: (§1)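 Five library-drug doses in √10 steps were combined with a fixed anchor-drug dose, or a single drug was given alone, by pin tool to lung cancer cell lines in 1536-well plates the day after seeding. Nuclei were stained and counted after 5 days. Relative viability is the nuclei count in treated wells over that in vehicle wells, taken as the median of duplicate plates.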

Darinaparsin + Lapatinib = compound: C[As](C)SC[C@H](NC(=O)CC[C@H](N)C(=O)O)C(=O)NCC(=O)O [Darinaparsin] + CS(=O)(=O)CCNCc1ccc(-c2ccc3ncnc(Nc4ccc(OCc5cccc(F)c5)c(Cl)c4)c3c2)o1 [Lapatinib] (partner 2 µM)
How it was run: as §1

AZ628 + Luminespib = compound: CC1=C(C=C(C=C1)NC(=O)C2=CC(=CC=C2)C(C)(C)C#N)NC3=CC4=C(C=C3)N=CN(C4=O)C [AZ628] + CCNC(=O)c1noc(-c2cc(C(C)C)c(O)cc2O)c1-c1ccc(CN2CCOCC2)cc1 [Luminespib] (partner 0.01 µM)
How it was run: as §1

[1] = compound: C[As](C)SC[C@H](NC(=O)CC[C@H](N)C(=O)O)C(=O)NCC(=O)O [Darinaparsin] + Nc1ncn([C@H]2C[C@H](O)[C@@H](CO)O2)c(=O)n1 [Decitabine] (partner 2 µM)
How it was run: as §1

Cell Line	relative viability (AZ628 + Olaparib; first compound 0.08 µM)	relative viability (AZ628 + Olaparib; first compound 0.253 µM)	relative viability (AZ628 + Olaparib; first compound 0.8 µM)	relative viability (AZ628 + Olaparib; first compound 2.53 µM)	relative viability (AZ628 + Olaparib; first compound 8 µM)	relative viability (Darinaparsin + Lapatinib; first compound 0.08 µM)	relative viability (Darinaparsin + Lapatinib; first compound 0.8 µM)	relative viability (Darinaparsin + Lapatinib; first compound 2.53 µM)	relative viability (Darinaparsin + Lapatinib; first compound 8 µM)	relative viability (AZ628 + Luminespib; first compound 0.08 µM)	relative viability (AZ628 + Luminespib; first compound 0.253 µM)	relative viability (AZ628 + Luminespib; first compound 0.8 µM)	relative viability (AZ628 + Luminespib; first compound 2.53 µM)	relative viability (AZ628 + Luminespib; first compound 8 µM)	relative viability ([1]; first compound 0.08 µM)	relative viability ([1]; first compound 0.8 µM)	relative viability ([1]; first compound 2.53 µM)	relative viability ([1]; first compound 8 µM)
NCI-H1915	0.256	0.229	0.232	0.26	0.168	0.996	0.888	0.932	1.18	0.921	0.816	0.73	0.6	0.365	0.288	0.239	0.254	0.256
NCI-H1944	0.416	0.42	0.411	0.329	0.365	0.834	0.796	0.664	0.947	0.651	0.66	0.553	0.546	0.575	0.437	0.466	0.452	0.442
NCI-H1975	0.613	0.674	0.616	0.749	0.392	0.998	0.895	0.66	1.25	0.23	0.304	0.196	0.316	0.228	0.382	0.429	0.425	0.374
NCI-H1993	1.18	1.19	1.05	0.933	0.773	0.854	0.736	0.722	0.534	0.991	0.683	0.702	0.753	0.613	0.626	0.584	0.608	0.586
NCI-H2009	0.711	0.778	0.862	0.789	0.461	0.992	0.93	0.888	0.915	0.967	0.957	0.894	0.966	0.38	0.412	0.354	0.375	0.398
NCI-H2023	0.452	0.427	0.522	0.508	0.433	1	0.85	0.63	1.2	0.818	0.76	0.666	0.65	0.653	0.219	0.219	0.196	0.216
NCI-H2085	0.805	0.756	0.895	0.865	0.703	0.809	0.697	0.776	0.916	0.538	0.41	0.468	0.503	0.33	0.532	0.474	0.601	0.527
NCI-H2087	0.446	0.491	0.383	0.537	0.181	1.29	1.02	0.951	0.997	0.132	0.155	0.159	0.193	0.152	0.322	0.286	0.28	0.282
NCI-H2126	0.932	0.875	0.874	0.935	0.972	0.767	0.712	0.622	0.861	1	0.902	0.968	0.933	0.97	0.597	0.578	0.575	0.635
NCI-H2170	0.56	0.598	0.607	0.638	0.551	0.283	0.257	0.286	0.285	0.802	0.725	0.789	0.752	0.731	0.488	0.502	0.544	0.458
NCI-H2347	0.516	0.537	0.506	0.594	0.43	1.23	0.883	0.919	1.1	0.287	0.239	0.301	0.255	0.218	0.667	0.632	0.733	0.697
NCI-H2405	0.661	0.792	0.572	0.646	0.555	1.04	1.01	1.04	1.1	0.366	0.425	0.411	0.365	0.355	0.802	0.716	0.663	0.735
NCI-H3122	0.652	0.634	0.561	0.565	0.379	1.16	0.986	1.03	1.14	0.0933	0.0771	0.11	0.0973	0.0958	0.425	0.437	0.42	0.442
PC-3 [JPC-3]	1.1	1.16	1.22	1.23	1.1	0.458	0.364	0.411	0.492	0.628	0.67	0.866	0.675	0.71	0.748	0.773	0.847	0.796
PC-14	0.376	0.258	0.243	0.259	0.16	0.333	0.294	0.32	0.372	0.197	0.132	0.146	0.167	0.202	0.253	0.197	0.201	0.202
RERF-LC-KJ	0.807	0.925	1.01	1.01	0.865	1.11	0.849	0.762	1.03	1.21	1.23	1.43	1.08	1.19	0.728	0.68	0.687	0.561
SK-LU-1	0.376	0.37	0.44	0.379	0.315	1.08	0.802	0.574	0.932		0.181	0.231	0.211	0.169	0.637	0.587	0.495	0.759
